# Entries after “also recorded” stand apart in the source; their conditions may differ.
# Target: pFGFR4 in MDA-MB-453 cells (Homo sapiens (Human), UniProt P22455, Y367C)
# Test: Washout experiment (duration of pFGFR4 inhibition)
# Assay type: cell-based
# Conditions: 1000-2000 nM for 1 hr, washed, up to 24 hr
# Experimental: The cells were allowed to settle down for 4 hrs and were then maintained in low-serum (0.1% FBS) media overnight.
# The following morning, the media was removed and the cells were treated with 1000-2000 nM of test compound in low-serum media for 1 hr. The cells were washed free of test compound (3×) with PBS (Invitrogen). One set of cells was immediately lysed as indicated above as the 0 hr time point. The remaining cells were incubated with the appropriate complete growth media (10-20% FBS) for 1, 2, 4, 8, 16 (in certain circumstances) and 24 hr. DMSO (0.5%) controls were collected at all time points.
# pFGFR4 in MDA-MB-453 cells, sequence (P22455 22-802 Y367C): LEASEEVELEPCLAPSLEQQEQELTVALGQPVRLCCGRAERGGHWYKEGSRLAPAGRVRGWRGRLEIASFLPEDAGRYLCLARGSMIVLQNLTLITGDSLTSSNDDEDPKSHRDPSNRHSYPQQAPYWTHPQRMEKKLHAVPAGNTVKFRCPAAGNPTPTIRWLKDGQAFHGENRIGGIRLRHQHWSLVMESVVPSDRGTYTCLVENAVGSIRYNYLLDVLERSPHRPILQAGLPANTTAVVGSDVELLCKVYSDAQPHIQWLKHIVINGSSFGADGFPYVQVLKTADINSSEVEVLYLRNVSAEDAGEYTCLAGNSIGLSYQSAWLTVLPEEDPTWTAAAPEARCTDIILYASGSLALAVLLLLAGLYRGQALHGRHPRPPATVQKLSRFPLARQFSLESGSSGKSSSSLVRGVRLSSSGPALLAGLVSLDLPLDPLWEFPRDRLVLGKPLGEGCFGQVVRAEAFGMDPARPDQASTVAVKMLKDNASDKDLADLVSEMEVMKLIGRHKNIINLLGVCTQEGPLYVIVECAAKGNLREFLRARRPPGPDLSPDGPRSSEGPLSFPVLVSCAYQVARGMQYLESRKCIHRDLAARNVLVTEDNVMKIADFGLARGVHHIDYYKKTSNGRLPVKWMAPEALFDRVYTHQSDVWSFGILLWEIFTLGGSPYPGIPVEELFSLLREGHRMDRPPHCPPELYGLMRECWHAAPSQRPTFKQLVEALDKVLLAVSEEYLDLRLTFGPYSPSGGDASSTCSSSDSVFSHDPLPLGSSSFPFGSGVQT
row,Structure (SMILES),duration of action against pFGFR4 signalling after washout
1,C=CC(=O)Nc1ccccc1Nc1ncc2c(n1)N(Cc1cccc(NC(=O)CC)c1)C(=O)N(c1c(Cl)c(OC)cc(OC)c1Cl)C2 [Compound I-1],has PDA; also recorded: prolonged duration of action
2,CCC(=O)Nc1cccc(CN2C(=O)N(c3c(Cl)c(OC)cc(OC)c3Cl)Cc3cnc(Nc4ccccc4NC(=O)CC)nc32)c1 [Compound I-234],does not have PDA; also recorded: does not show prolonged duration of action
3,C=CC(=O)NC1CCCCC1Nc1ncc2c(n1)N(Cc1cscn1)C(=O)N(c1c(Cl)c(OC)cc(OC)c1Cl)C2 (racemic) [Compound I-69],prolonged duration of action; also recorded: prolonged inhibition of autophosphorylation of FGFR4
